# Values of other authors in patent publication US20070213409A1, “USE OF PREPARATIONS FOR SKIN ENZYME PROTECTION” (BEIERSDORF AG, priority 2005, published 2007).
# Counter-ions that a name gives are not always drawn.
# Tests used:
# [1] = tested on: stratum corneum tryptic enzyme (SCTE); conditions: competitive inhibition; associated with reduced desquamation
# [2] = tested on: stratum corneum chymotryptic enzyme (SCCE); conditions: competitive inhibition; associated with reduced desquamation
# [3] = tested on: desquamation (SCCE and SCTE serine proteases)
Compound,effect on activity of SCTE [1],effect on activity of SCCE [2],skin flakes in vivo after topical application [3]
CC(C)CCC[C@@H](C)[C@H]1CC[C@H]2[C@@H]3CC=C4C[C@@H](OS(=O)(=O)O)CC[C@]4(C)[C@H]3CC[C@]12C [cholesterol-3 sulfate],reduces,reduces,
CC(=O)N[C@@H](CC(C)C)C(=O)N[C@@H](CC(C)C)C(=O)N[C@H](C=O)CCCNC(=N)N [leupeptin],,,more skin flakes
aprotinin,,,more skin flakes
